In test [1] the test system is WM-164 melanoma cell line. The test is described as follows: Sulforhodamine B (SRB) cytotoxicity assay, WM-164. It is filed as cell-based. To be noted: Homo sapiens, WM164, 48 h exposure, diastereomeric mixtures, value ± standard error, read-out: IC50 ± SEM WM-164 (converted). The protocol: (§1) Cytotoxicity of these newly synthesized compounds was examined in two human melanoma cell lines (SK-MEL-188 and WM-164) and in a fibroblast cell line. Activity on fibroblast cells was used as a control to determine the selectivity of these compounds against melanoma. Standard sulforhodamine B (SRB) assay was used. Cells were exposed to a wide range of concentrations for 48 h in round-bottom 96-well plates. Cells were fixed with 10% trichloroacetic acid and washed five times with water. After cells were air-dried overnight and stained with SRB solution, total proteins were measured at 560 nm with a plate reader. IC50 (i.e., concentration which inhibited cell growth by 50% of DMSO-treated controls) values were obtained by nonlinear regression analysis with GraphPad Prism (GraphPad Software, San Diego, Calif.).
(§2) The ability of thiazolidine derivatives to inhibit the growth of two melanoma cancer cell lines and fibroblast cells is summarized in Table 1. […] At this early stage, all compounds were used as a diastereomeric mixture if they contain chiral centers in order to select the most promising compounds for further development.
Background: In SRB staining, fixed cells bind dye roughly in proportion to their protein.

Test [2] concerns fibroblast cell line. The test is described as follows: Sulforhodamine B (SRB) cytotoxicity assay, fibroblast control. In kind it is cell-based. The settings on record: 48 h exposure, control for selectivity, value ± standard error, read-out: IC50 ± SEM Fibroblast (converted). The protocol: as §1, §2
For test [3], the system named is SK-MEL-188 melanoma cell line. Kind of test: Sulforhodamine B (SRB) cytotoxicity assay, SK-MEL-188. It is filed as cell-based. The settings on record: Homo sapiens, 48 h exposure, diastereomeric mixtures, value ± standard error, read-out: IC50 ± SEM SK-MEL-188 (converted). The procedure: as §1, §2
Test [4] has as its system melanoma cells. The test is described as follows: SRB cytotoxicity assay, statements not tied to one cell line. In kind it is cell-based, human. The settings on record: for potency/activity in words: melanoma cells and fibroblast cells; for IC50: Homo sapiens; for selectivity in words: melanoma versus fibroblast cells. The procedure: as §1, §2
The mark [5] stands for this setting: summary over the cell lines, read-out: IC50 in the in vitro assay (cell line not given).

Read-outs that look alike come from different tables or passages of the source.

Turning to `CCCCCCCCCCCCCCNC(=O)[C@@H]1CSC(c2ccc(OC)c(OC)c2)N1` (stereo partly drawn) [Compound 308, (4R)-2-(3,4-dimethoxyphenyl)-N-tetradecylthiazolidine-4-carboxamide], the IC50 in test [1] was 800 nM; in test [2], 2800 nM; in test [3], 1500 nM.

For the compound `CON(C)C(=O)[C@@H]1CSC(c2ccccc2)N1` (stereo partly drawn) [Compound 323, (4R)—N-methoxy-N-methyl-2-phenylthiazolidine-4-carboxamide], the IC50 in test [1], in test [2] and in test [3] was > 100000 nM in each case. The potency/activity in words entry in test [4] is reported as “completely abolished potency”.

In the case of `CCCCCCCCCCCCCCCCNC(=O)[C@@H]1CSC(c2ccc3c(c2)OCO3)N1` (stereo partly drawn) [Compound 313, (4R)-2-(benzo[d][1,3]dioxol-5-yl)-N-hexadecylthiazolidine-4-carboxamide], the IC50 in test [1] is 1800 nM; in test [2], 5700 nM; in test [3], 1600 nM.

In the case of `CCCCCCCCCCCCCCCCNC(=O)[C@@H]1CSC(c2ccc(N)cc2)N1` (stereo partly drawn) [Compound 327, (4R)-2-(4-aminophenyl)-N-hexadecylthiazolidine-4-carboxamide], the half-inhibitory concentration (IC50) in test [1] was 1400 nM; in test [2] it was 7400 nM; in test [3] it was 2300 nM.

For the compound `CCCCCCCCCCCCCCCCNC(=O)[C@@H]1CSC(c2ccccc2NC(C)=O)N1C` (stereo partly drawn) [Compound 330, (4R)-2-(2-acetamidophenyl)-N-hexadecyl-3-methylthiazolidine-4-carboxamide], the IC50 was > 100000 nM in test [1], > 100000 nM in test [2], 29100 ± 1000 nM in test [3] and > 20000 nM in test [4] (setting [5]).

For the compound `CCCCCCCCCCCCCCCNC(=O)[C@@H]1CSC(c2ccc(NC(C)=O)cc2)N1` (stereo partly drawn) [Compound 316, (4R)-2-(4-acetamidophenyl)-N-pentadecylthiazolidine-4-carboxamide], the IC50 was 1000 nM in test [1], 14300 nM in test [2] and 1600 nM in test [3].

Consider `CCCCCCCCCCCCCCNC(=O)[C@H]1CSC(c2cc(OC)c(OC)c(OC)c2)N1` (stereo partly drawn) [Compound 324, (4S)-2-(3,4,5-trimethoxyphenyl)-N-tetradecylthiazolidine-4-carboxamide], for which the figures for the IC50 in test [1], in test [2] and in test [3] were 1100 ± 100 nM, 4100 ± 700 nM and 2600 ± 200 nM, respectively.

For `CCCCCCCCC/C=C/CCCCCCCNC(=O)[C@@H]1CSC(c2ccc(NC(C)=O)cc2)N1` (stereo partly drawn) [Compound 320E, (4R)-2-(4-acetamidophenyl)-N-((E)-octadec-8-enyl)thiazolidine-4-carboxamide], the IC50 is 1400 nM in test [1], 18000 nM in test [2] and 3300 nM in test [3]. In addition, the potency/activity in words result in test [4] was “restored potency dramatically”.

Turning to `CCCCCCCCCCCCCCCCNC(=O)[C@H]1CSC(c2ccc(NC(C)=O)cc2)N1` (stereo partly drawn) [Compound 325, (4S)-2-(4-acetamidophenyl)-N-hexadecylthiazolidine-4-carboxamide], the IC50 in test [1] is 1400 nM; in test [2], 22600 nM; in test [3] it was 3200 nM.

In the case of `CCCCCCCCCCCCCCNC(=O)[C@@H]1CSC(c2ccccc2)=N1` [Compound 328, (R)-4,5-dihydro-2-phenyl-N-tetradecylthiazole-4-carboxamide], the IC50 in test [1] is > 50000 nM; in test [2], > 50000 nM; in test [3], 42100 ± 5000 nM; in test [4] (setting [5]), > 20000 nM.

Consider `CCCCCCCCCCCCNC(=O)[C@@H]1CSC(c2ccc(OC)c(OC)c2)N1` (stereo partly drawn) [Compound 307, (4R)—N-dodecyl-2-(3,4-dimethoxyphenyl)thiazolidine-4-carboxamide], for which the IC50 in test [1] is 1600 nM; in test [2], 4500 nM; in test [3], 2900 nM.

Regarding `CCCCCCCCCCCCNC(=O)[C@@H]1CSC(c2ccc3c(c2)OCO3)N1` (stereo partly drawn) [Compound 311, (4R)-2-(benzo[d][1,3]dioxol-5-yl)-N-dodecylthiazolidine-4-carboxamide], the IC50 is 2500 nM in test [1], 5200 nM in test [2] and 3500 nM in test [3].

In the case of `CCCCCCCCCCCCCCNC(=O)[C@@H]1CSC(c2cc(OC)c(OC)c(OC)c2)N1` (stereo partly drawn) [Compound 304, (4R)-2-(3,4,5-trimethoxyphenyl)-N-tetradecylthiazolidine-4-carboxamide], the IC50 was 1600 nM in test [1], 2600 nM in test [2] and 2000 nM in test [3].

Consider `CCCCCCCCCCCCCCNC(=O)[C@@H]1CSC(c2ccc(NC(C)=O)cc2)N1` (stereo partly drawn) [Compound 315, (4R)-2-(4-acetamidophenyl)-N-tetradecylthiazolidine-4-carboxamide], for which the half-maximal inhibitory concentration (IC50) was 600 nM in test [1], 3600 nM in test [2] and 2300 nM in test [3].

Regarding `CCCCCCCCCCNC(=O)[C@@H]1CSC(c2cc(OC)c(OC)c(OC)c2)N1` (stereo partly drawn) [Compound 302, (4R)—N-decyl-2-(3,4,5-trimethoxyphenyl)thiazolidine-4-carboxamide], the values for the IC50 in test [1], in test [2] and in test [3] were 2100 nM, 6700 nM and 14500 nM, respectively. In test [4], the potency/activity in words entry is given as “low potency”.

Regarding `CCCCCCCCNC(=O)[C@@H]1CSC(c2cc(OC)c(OC)c(OC)c2)N1` (stereo partly drawn) [Compound 301, (4R)-2-(3,4,5-trimethoxyphenyl)-N-octylthiazolidine-4-carboxamide], the IC50 in test [1] is 19600 ± 900 nM; in test [2] it was 20800 ± 10400 nM; in test [3], 17100 ± 600 nM.

As for `CCCCCCCCCCCCCCNC(=O)[C@@H]1CSC(c2ccccc2)N1` (stereo partly drawn) [Compound 321, (4R)-2-phenyl-N-tetradecylthiazolidine-4-carboxamide], the IC50 in test [1] was 600 nM; in test [2], 2800 nM; in test [3], 1900 nM. Also, the selectivity in words result in test [4] was “loss of selectivity”.

As to `CCCCCCCCCCCCCCCCNC(=O)[C@@H]1CSC(c2ccc(OC)c(OC)c2)N1` (stereo partly drawn) [Compound 309, (4R)—N-hexadecyl-2-(3,4-dimethoxyphenyl)thiazolidine-4-carboxamide], the IC50 in test [1] was 500 nM; in test [2] it was 2100 nM; in test [3] it was 1500 nM.

As for `CCCCCCCCCCCCCCCCNC(=O)[C@@H]1CSC(c2ccc(NC(C)=O)cc2)N1` (stereo partly drawn) [Compound 317, (4R)-2-(4-acetamidophenyl)-N-hexadecylthiazolidine-4-carboxamide], the half-maximal inhibitory concentration (IC50) is 600 nM in test [1]; 19100 nM in test [2]; 2100 nM in test [3]; 600 nM in test [4] (melanoma cells, lowest value stated in text, read-out: IC50 for melanoma cells (as low as)).

Regarding `CCCCCCCCCCCCNC(=O)[C@@H]1CSC(c2cc(OC)c(OC)c(OC)c2)N1` (stereo partly drawn) [Compound 303, (4R)—N-dodecyl-2-(3,4,5-trimethoxyphenyl)thiazolidine-4-carboxamide], the half-maximal inhibitory concentration (IC50) is 2400 nM in test [1], 2400 nM in test [2] and 2100 nM in test [3].

Regarding `CCCCCCCCCCCCNC(=O)[C@@H]1CSC(c2ccc(NC(C)=O)cc2)N1` (stereo partly drawn) [Compound 314, (4R)-2-(4-acetamidophenyl)-N-dodecylthiazolidine-4-carboxamide], the IC50 is 1200 nM in test [1], 3500 nM in test [2] and 2400 nM in test [3].

As to `CCCCCCCCCCCCCCCCNC(=O)[C@@H]1CSC(c2ccccc2)N1` (stereo partly drawn) [Compound 322, (4R)—N-hexadecyl-2-phenylthiazolidine-4-carboxamide], the IC50 in test [1] is 700 nM; in test [2] it was 2200 nM; in test [3] it was 1900 nM. In addition, in test [4], the selectivity in words entry is on record as “loss of selectivity”.

As for `CN(C)/N=N/c1[nH]cnc1C(N)=O` [DTIC, dacarbazine, reference compound], the 50% inhibitory concentration (IC50) in test [1], in test [3] and in test [4] (setting [5]) was > 100000 nM each time.

Turning to `CCCCCCCCCCCCCCNC(=O)[C@@H]1CSC(c2ccc3c(c2)OCO3)N1` (stereo partly drawn) [Compound 312, (4R)-2-(benzo[d][1,3]dioxol-5-yl)-N-tetradecylthiazolidine-4-carboxamide], the values for the IC50 in test [1], in test [2] and in test [3] were 1000 nM, 4200 nM and 1600 nM, respectively.

Regarding `CCCCCCCCCCCCNC(=O)[C@@H]1CSC(c2ccc(N)cc2)N1` (stereo partly drawn) [Compound 326, (4R)-2-(4-aminophenyl)-N-dodecylthiazolidine-4-carboxamide], the values for the IC50 in test [1], in test [2] and in test [3] were 1400 nM, 4100 nM and 2200 nM, respectively.

`CCCCCCCCCCCCCCCCCNC(=O)[C@@H]1CSC(c2ccc(NC(C)=O)cc2)N1` (stereo partly drawn) [Compound 318, (4R)-2-(4-acetamidophenyl)-N-heptadecylthiazolidine-4-carboxamide]: the IC50 in test [1] was 2400 nM; in test [2], 35800 nM; in test [3], 8500 nM.

Take `CCCCCCCCCCCCCCCCNC(=O)[C@@H]1CSC(c2cc(OC)c(OC)c(OC)c2)N1` (stereo partly drawn) [Compound 305, (4R)—N-hexadecyl-2-(3,4,5-trimethoxyphenyl)thiazolidine-4-carboxamide]: the IC50 in test [1] is 700 nM; in test [2], 2400 nM; in test [3], 1800 nM.

What is called IC50 is the concentration that inhibits the measured activity by half.

The values above are taken from patent US20080255213A1, “THIAZOLIDINONE AMIDES, THIAZOLIDINE CARBOXYLIC ACID AMIDES, AND SERINE AMIDES, INCLUDING POLYAMINE CONJUGATES THEREOF, AS SELECTIVE ANTI-CANCER AGENTS” (University of Tennessee Research Foundation, priority 2007, published 2008).
